Data from PMC9738179, “New Nucleic Base-Tethered Trithiolato-Bridged Dinuclear Ruthenium(II)-Arene Compounds: Synthesis and Antiparasitic Activity” (Molecules, 2022).
Values joined by “and” are separate entries in the source; they are usually repeats but may differ in a detail not shown here. Identical values can stand only once.

Legend:
[1] = system: human foreskin fibroblasts (HFF); test: Cytotoxicity in non-infected HFF by alamarBlue assay; format: cell-based
Description: (§1) The screening cascade for the compounds was described in former studies. All compounds were prepared as 1 mM stock solutions from powder, in dimethyl sulfoxide (DMSO, Sigma, St. Louis, MO, USA). For in vitro activity and cytotoxicity assays, HFF were seeded at 5 × 10^3/well and allowed to grow to confluence in phenol-red free culture medium at 37 °C and 5% CO2. T. gondii tachyzoites were released from host cells, and HFF monolayers were infected with freshly isolated parasites (1 × 10^3/well), and compounds were added concomitantly with infection.
Cytotoxicity assays using uninfected confluent HFF host cells were performed by the alamarBlue assay as previously reported. Confluent HFF monolayers in 96 well-plates were exposed to 0.1, 1, and 2.5 μM of each compound. Non-treated HFF as well as DMSO controls (0.01%, 0.1%, and 0.25%) were included. After 72 h of incubation at 37 °C/5% CO2, the medium was removed, and the plates were washed once with PBS. Resazurin suspended in PBS to a final concentration of 0.01 g/L was added to each well (200 μL/well). Fluorescence was measured at excitation wavelength 530 nm and emission wavelength […] using an EnSpire® multimode plate reader (PerkinElmer, Inc, Waltham, MA, USA). The cytotoxicity values were calculated as percentage of the respective DMSO control, which represented 100% of HFF viability.

[2] = system: T. gondii β-gal tachyzoites; test: Dose-response study (IC50) against T. gondii β-gal tachyzoites; format: cell-based, Toxoplasma gondii; conditions: 8 serial concentrations 0.007-1 µM, 72 h
Description: as §1
For the dose-response study (IC50 values), measurements for T. gondii β-gal were performed. The selected compounds were added concomitantly with infection in 8 serial concentrations 0.007, 0.01, 0.03, 0.06, 0.12, 0.25, 0.5, and 1 μM.
(§2) To measure the activity of the tested compound on T. gondii β-gal parasites, after a period of 72 h of culture at 37 °C/5% CO2, the culture medium was aspirated, and cells were permeabilized by adding 90 μL PBS (phosphate buffered saline) with 0.05% Triton X-100. Next, 10 μL of 5 mM chlorophenolred-β-D-galactopyranoside (CPRG; Roche Diagnostics, Rotkreuz, Switzerland, substrate for the β-galactosidase) in PBS were added. Release of chlorophenol red was measured at 570 nm using an EnSpire® multimode plate reader (PerkinElmer, Inc., Waltham, MA, USA). A 100% proliferation of T. gondii β-gal was assigned to control parasites treated only with DMSO. For the primary screening at 0.1 and 1 μM, the activity was measured as the release of chlorophenol red over time and was calculated as percentage from the respective DMSO treated control, which represented 100% of T. gondii β-gal growth.
For the IC50 assays, the activity measured as the release of chlorophenol red over time was proportional to the number of live parasites down to 50 per well as determined in pilot assays. IC50 values were calculated after the logit-log-transformation of relative growth and subsequent regression analysis. All calculations were performed using the corresponding software tool contained in the Excel software package (Microsoft, Redmond, WA, USA).

[3] = system: T. gondii β-gal tachyzoites; test: Primary screening: T. gondii β-gal proliferation in HFF monolayers at 0.1 and 1 µM (CPRG readout); format: cell-based, Toxoplasma gondii; conditions: tachyzoites cultured in HFF, 72 h, relative to DMSO control
Description: as §1
In the primary screening, HFF monolayers infected with T. gondii β-gal were treated with 0.1 and 1 µM of each compound, or the corresponding concentration of DMSO (0.01 or 0.1%, respectively) as controls and were incubated for 72 h at 37 °C/5% CO2 as previously described.
as §2

[4] = 0.1 µM, non-infected HFF, 72 h, relative to DMSO control, triplicate
[5] = 2.5 µM, control 0.25% DMSO = 100%, six replicates
[6] = 1 µM, non-infected HFF, 72 h, relative to DMSO control, triplicate

| SMILES | HFF Viability (%) ([1]; 0.1 µM) | IC50 [2] [µM] | T. gondii β-gal Growth (%) ([3]; 0.1 µM) | T. gondii β-gal Growth (%) ([3]; 1 µM) | HFF Viability (%) ([1]; 1 µM) | HFF Viability (%) ([1]; 2.5 µM) | HFF Viability (%) [1, 4] [%] | HFF Viability (%) [1, 5] | HFF Viability (%) [1, 6] [%] |
| --- | --- | --- | --- | --- | --- | --- | --- | --- | --- |
| NC(=O)c1ccc(-c2cn(Cc3cc(=O)[nH]c(=O)[nH]3)nn2)cc1 [Compound 29] | 101 ± 1 | – | – | – | – | – | – | – | – |
| CC(C)(C)c1ccc(C[S]2[Ru]3[S](Cc4ccc(C(C)(C)C)cc4)[Ru+]2[S]3c2ccccc2Cn2cc(Cn3cnc4c(N)ncnc43)nn2)cc1.Cc1ccc(C(C)C)cc1.Cc1ccc(C(C)C)cc1.[Cl-] [Compound 22] | 102 ± 0 | 0.108 | 79 ± 3 | 1 ± 0 | 77 ± 2 | 52 | – | – | – |
| CC(C)(C)c1ccc(C[S]2[Ru]3[S](Cc4ccc(C(C)(C)C)cc4)[Ru+]2[S]3c2ccc(-n3cc(CO)nn3)cc2)cc1.Cc1ccc(C(C)C)cc1.Cc1ccc(C(C)C)cc1.[Cl-] [Compound 38] | 104 ± 1 | 0.128 | 42 ± 2 | 0 ± 0 | 71 ± 1 | 59 | – | – | – |
| CC(C)(C)c1ccc(C[S]2[Ru]3[S](Cc4ccc(C(C)(C)C)cc4)[Ru+]2[S]3c2ccc(-n3cc(Cn4cnc5c(N)ncnc54)nn3)cc2)cc1.Cc1ccc(C(C)C)cc1.Cc1ccc(C(C)C)cc1.[Cl-] [Compound 26] | 109 ± 2 | 0.178 | 109 ± 6 | – | 76 ± 0 | 45 | – | – | – |
| CC(C)(C)c1ccc(C[S+]2[Ru-]3[S+](Cc4ccc(C(C)(C)C)cc4)[Ru-]2[S+]3c2ccccc2Cn2cc(Cn3ccc(=O)[nH]c3=O)nn2)cc1.Cc1ccc(C(C)C)cc1.Cc1ccc(C(C)C)cc1.[Cl-] (centres unmarked) [Compound 19] | – | 0.46 | – | – | – | – | 93 ± 2 | 50% | – |
| CC(C)(C)c1ccc(C[S]2[Ru]3[S](Cc4ccc(C(C)(C)C)cc4)[Ru+]2[S]3c2ccc(-n3cc(Cn4ccc(N)nc4=O)nn3)cc2)cc1.Cc1ccc(C(C)C)cc1.Cc1ccc(C(C)C)cc1.[Cl-] [Compound 25] | 94 ± 9 | – | 82 ± 6 | – | 91 ± 8 | – | – | – | – |
| CC(C)(C)c1ccc(C[S]2[Ru]3[S](Cc4ccc(C(C)(C)C)cc4)[Ru+]2[S]3c2ccccc2Cn2cc(-c3ccc(CO)cc3)nn2)cc1.Cc1ccc(C(C)C)cc1.Cc1ccc(C(C)C)cc1.[Cl-] [Compound 35] | 89 ± 0 | – | 1 ± 0 | 0 ± 0 | – | – | – | – | – |
| CC(C)(C)c1ccc(C[S]2[Ru]3[S](Cc4ccc(C(C)(C)C)cc4)[Ru+]2[S]3c2ccccc2Cn2cc(-c3ccccc3)nn2)cc1.Cc1ccc(C(C)C)cc1.Cc1ccc(C(C)C)cc1.[Cl-] [Compound 34] | – | 0.092 | 7 ± 0 | 1 ± 0 | – | – | 96 ± 1 | highly toxic and 3% | 70 ± 1 |
| CC(C)(C)c1ccc(C[S+]2[Ru-]3[S+](Cc4ccc(C(C)(C)C)cc4)[Ru-]2[S+]3c2ccc(N=[N+]=[N-])cc2)cc1.Cc1ccc(C(C)C)cc1.Cc1ccc(C(C)C)cc1.[Cl-] (centres unmarked) [Compound 10] | – | 0.064 | – | 1 ± 0 | – | – | 94 ± 1 | 38% | – |
| C#CCOC(=O)Cc1ccc([S+]2[Ru-]3[S+](Cc4ccc(C(C)(C)C)cc4)[Ru-]2[S+]3Cc2ccc(C(C)(C)C)cc2)cc1.Cc1ccc(C(C)C)cc1.Cc1ccc(C(C)C)cc1.[Cl-] (centres unmarked) [Compound 7] | – | 0.289 | 19 ± 1 | 0 ± 0 | – | – | 100 ± 2 | 51% | – |
| C#CCCCC(=O)Nc1ccc([S+]2[Ru-]3[S+](Cc4ccc(C(C)(C)C)cc4)[Ru-]2[S+]3Cc2ccc(C(C)(C)C)cc2)cc1.Cc1ccc(C(C)C)cc1.Cc1ccc(C(C)C)cc1.[Cl-] (centres unmarked) [Compound 5] | – | 0.038 | 21 ± 2 | 0 ± 0 | – | – | 101 ± 0 | 34% | – |
| Cc1ccc(C(C)C)cc1.Cc1ccc(C(C)C)cc1.Cc1cn(Cc2cn(Cc3ccccc3[S+]3[Ru-]4[S+](Cc5ccc(C(C)(C)C)cc5)[Ru-]3[S+]4Cc3ccc(C(C)(C)C)cc3)nn2)c(=O)[nH]c1=O.[Cl-] (centres unmarked) [Compound 20] | 100 ± 2 | 0.363 | 102 ± 0 | 1 ± 0 | 71 ± 2 | 39 | – | – | – |
| CC(C)(C)c1ccc(C[S]2[Ru]3[S](Cc4ccc(C(C)(C)C)cc4)[Ru+]2[S]3c2ccc(CC(=O)OCc3cn(Cc4cc(=O)[nH]c(=O)[nH]4)nn3)cc2)cc1.Cc1ccc(C(C)C)cc1.Cc1ccc(C(C)C)cc1.[Cl-] [Compound 30] | – | 0.659 | – | – | – | – | 114 ± 0 | 97% | – |
| CC(C)(C)c1ccc(C[S]2[Ru]3[S](Cc4ccc(C(C)(C)C)cc4)[Ru+]2[S]3c2ccc(CC(=O)NCc3cn(Cc4cc(=O)[nH]c(=O)[nH]4)nn3)cc2)cc1.Cc1ccc(C(C)C)cc1.Cc1ccc(C(C)C)cc1.[Cl-] [Compound 31] | 99 ± 3 | – | – | – | – | – | – | – | – |
| CC(C)(C)c1ccc(C[S]2[Ru]3[S](Cc4ccc(C(C)(C)C)cc4)[Ru+]2[S]3c2ccccc2Cn2cc(Cn3ccc(N)nc3=O)nn2)cc1.Cc1ccc(C(C)C)cc1.Cc1ccc(C(C)C)cc1.[Cl-] [Compound 21] | 109 ± 2 | 0.046 | – | 0 ± 0 | 89 ± 1 | 38 | – | – | – |
| CC(C)(C)c1ccc(C[S+]2[Ru-]3[S+](Cc4ccc(C(C)(C)C)cc4)[Ru-]2[S+]3c2ccccc2CN=[N+]=[N-])cc1.Cc1ccc(C(C)C)cc1.Cc1ccc(C(C)C)cc1.[Cl-] (centres unmarked) [Compound 9] | – | 0.048 | – | 1 ± 1 | – | – | 96 ± 1 | 11% | – |
| CC(C)(C)c1ccc(C[S]2[Ru]3[S](Cc4ccc(C(C)(C)C)cc4)[Ru+]2[S]3c2ccc(-n3cc(Cn4ccc(=O)[nH]c4=O)nn3)cc2)cc1.Cc1ccc(C(C)C)cc1.Cc1ccc(C(C)C)cc1.[Cl-] [Compound 23] | – | 0.426 | – | – | – | – | 100 ± 1 | 64% | – |
| CC(C)(C)c1ccc(C[S]2[Ru]3[S](Cc4ccc(C(C)(C)C)cc4)[Ru+]2[S]3c2ccc(-n3cc(-c4ccccc4)nn3)cc2)cc1.Cc1ccc(C(C)C)cc1.Cc1ccc(C(C)C)cc1.[Cl-] [Compound 37] | – | 0.096 | 13 ± 1 | 0 ± 0 | – | – | 99 ± 1 | highly toxic and 17% | 71 ± 0 |
| CC(C)(C)c1ccc(C[S]2[Ru]3[S](Cc4ccc(C(C)(C)C)cc4)[Ru+]2[S]3c2ccccc2Cn2cc(CO)nn2)cc1.Cc1ccc(C(C)C)cc1.Cc1ccc(C(C)C)cc1.[Cl-] [Compound 36] | – | 0.111 | – | 0 ± 0 | – | – | 115 ± 1 | low toxicity and medium toxicity and 77% | – |
| Nc1ncnc2c1ncn2CCO [Compound 14A, 9-(2-hydroxyethyl)adenine] | – | – | 104 ± 2 | 75 ± 11 | – | – | – | – | – |
| C#Cc1ccc(C(=O)Nc2ccc([S+]3[Ru-]4[S+](Cc5ccc(C(C)(C)C)cc5)[Ru-]3[S+]4Cc3ccc(C(C)(C)C)cc3)cc2)cc1.Cc1ccc(C(C)C)cc1.Cc1ccc(C(C)C)cc1.[Cl-] (centres unmarked) [Compound 6] | – | 0.288 | 112 ± 1 | 6 ± 1 | – | – | 95 ± 1 | 17% | – |
